Test results reported in paper PMC9694777, “Fractionation and Extraction Optimization of Potentially Valuable Compounds and Their Profiling in Six Varieties of Two Nicotiana Species” (Molecules, 2022).
≈ marks a conversion by molar mass, not a printed value.

Assay: physchem
Conditions: 22 °C, thermodynamic from solid, room temperature (21–23 °C)
Description: Determination of the small molecule content in a complex plant matrix depends on the understanding of minimum solubility in the chosen extraction solvent. […] Often, tests on mixture are hardly reproducible on pure compounds if this aspect is not routinely considered in the workflow. We performed a general testing of best solvent systems to compare a wide range of small molecules of interest to understand the limitations of general approaches within a complex plant matrix such as Nicotiana.
For each of the 29 reference compounds, 2 mg was weighed into a 15 mL glass tube and dissolved in the minimum amount of the test solvent by gradually adding the solvent with a micropipette until complete dissolution or to a final volume of 10.0 mL. Seven solvents with polarities from nonpolar to polar were chosen for the test: hexane (C6H14), CH2Cl2, CH2Cl2/MeOH (4:1, v/v), EtOH, MeOH, MeOH/H2O (7:3, v/v), and H2O. The consumed solvents and their volumes were recorded for each reference compound.

**Q.** Which solubility (organic solvent or mixture, Solubility in C6H14, solvent hexane (C6H14), 2 mg compound, solvent added until dissolution or 10.0 mL) does the source give for `CC(C)=CCC/C(C)=C/CC/C(C)=C/CC/C=C(\C)CC/C=C(\C)CCC=C(C)C` [Squalene] here?
**A.** The solubility was 446 mg/mL (≈ 1090 mM).

**Q.** And the solubility (organic solvent or mixture, Solubility in CH2Cl2, solvent dichloromethane (CH2Cl2))?
**A.** The solubility was 474 mg/mL (≈ 1150 mM).

**Q.** And the solubility (organic solvent or mixture, Solubility in CH2Cl2/MeOH (4:1), solvent CH2Cl2/MeOH (4:1, v/v))?
**A.** The solubility was 472 mg/mL (≈ 1150 mM).

**Q.** And the solubility (organic solvent or mixture, Solubility in EtOH, solvent ethanol)?
**A.** The solubility was 5.94 mg/mL (≈ 14.5 mM).

**Q.** And the solubility (organic solvent or mixture, Solubility in MeOH, solvent methanol)?
**A.** The solubility was 0.22 mg/mL (≈ 0.536 mM).

**Q.** And the solubility (organic solvent or mixture, Solubility in MeOH/H2O (7:3), solvent MeOH/H2O (7:3, v/v))?
**A.** The solubility was under 0.19 mg/mL.

**Q.** And the solubility (water, Solubility in H2O, solvent water)?
**A.** Its solubility is under 0.19 mg/mL.
